In patent US9028845B2, “Chimeric immunomodulatory compounds and methods of using the same-IV” (Dynavax Technologies Corporation, priority 2001, dated 2015):

System: human PBMCs
Test: Human PBMC cytokine response assay (IFN-γ and IFN-α in cell-free medium by ELISA), with or without cPLGA;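 for IFN-α (pg/ml) mean: 20 µg/mL compound for 24 hours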;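 for IFN-γ (pg/ml) mean: 20 µg/mL compound for 24 hours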
Type: cell-based
Conditions: for immunomodulatory activity (IFN-γ / IFN-α secretion), in words: used alone (no cPLGA)
[1] = mean of donors 28185-28188, Table 15
[2] = Table 24, mean of donors 28234-28237
[3] = mean of donors 110, 112, 119, 120, Table 14

Substance	IFN-α (Table 10, donor 28042) [pg/mL]	IFN-γ (Table 10, donor 28042) [pg/mL]	IFN-α (Table 10, donor 28043) [pg/mL]	IFN-γ (Table 10, donor 28043) [pg/mL]	IFN-α (Table 10, donor 28044) [pg/mL]	IFN-γ (Table 10, donor 28044) [pg/mL]	IFN-α (Table 10, donor 28045) [pg/mL]	IFN-γ (Table 10, donor 28045) [pg/mL]	IFN-α mean (Table 10, mean of donors) [pg/mL]	IFN-γ mean (Table 10, mean of donors) [pg/mL]	IFN-γ induction, in words (used alone)	immunomodulatory activity (IFN-γ / IFN-α secretion), in words	IFN-α (Table 24, donor 28234) [pg/mL]	IFN-γ (Table 24, donor 28234) [pg/mL]	IFN-α (Table 24, donor 28235) [pg/mL]	IFN-γ (Table 24, donor 28235) [pg/mL]	IFN-α (Table 24, donor 28236) [pg/mL]	IFN-γ (Table 24, donor 28236) [pg/mL]	IFN-α (Table 24, donor 28237) [pg/mL]	IFN-γ (Table 24, donor 28237) [pg/mL]	further results
5′-TCGT-3′-HEG-5′-TCGT-3′-HEG-5′-TCGT-3′-HEG-5′-TCGT-3′-HEG-5′-TCGT-3′ [Compound C-44]	0	238	12	359	60	484	1	51	18	283	induce IFN-γ when used alone	–	–	–	–	–	–	–	–	–	activity when formulated with cPLGA, in words (formulated with cPLGA): induced considerable IFN-γ and IFN-α when formulated with cPLGA
5′-TCG-3′-HEG-5′-T-3′ [Compound C-68]	–	–	–	–	–	–	–	–	–	–	–	neither CIC was active on its own	–	–	–	–	–	–	–	–	IFN-a (donor 28185, Table 15): 4 pg/mL; IFN-g (donor 28185, Table 15): 0 pg/mL; IFN-a (donor 28186, Table 15): 13 pg/mL; IFN-g (donor 28186, Table 15): 4 pg/mL; IFN-a (donor 28187, Table 15): 25 pg/mL; IFN-g (donor 28187, Table 15): 2 pg/mL; IFN-a (donor 28188, Table 15): 4 pg/mL; IFN-g (donor 28188, Table 15): 1 pg/mL; IFN-a (pg/ml) mean [1]: 11 pg/mL; IFN-g (pg/ml) mean [1]: 2 pg/mL; IFN-a (pg/ml) ×2 (mean ×2, Table 15): 23 pg/mL; IFN-g (pg/ml) ×4 (mean ×4, Table 15): 7 pg/mL
(5′-TCGTCGA-3′-HEG)2-glycerol-HEG-5′-AACGTTC-3′-HEG-5′-TCGACGT-3′ [Compound C-100]	–	–	–	–	–	–	–	–	–	–	–	–	16	27	16	183	398	490	193	1907	IFN-α mean [2]: 156 pg/mL; IFN-γ mean [2]: 652 pg/mL
5′-TCGTCG-3′-HEG-5′-ACGTTCG-3′-HEG-5′-AGATGAT-3′-TEG [Compound C-29]	–	–	–	–	–	–	–	–	–	–	–	–	–	–	–	–	–	–	–	–	IFN-α (Table 9, donor 28089): 75 pg/mL; IFN-γ (Table 9, donor 28089): 63 pg/mL; IFN-α (Table 9, donor 28090): 92 pg/mL; IFN-γ (Table 9, donor 28090): 50 pg/mL; IFN-α (Table 9, donor 28098): 359 pg/mL; IFN-γ (Table 9, donor 28098): 150 pg/mL; IFN-α (Table 9, donor 28099): 332 pg/mL; IFN-γ (Table 9, donor 28099): 177 pg/mL; IFN-α mean (Table 9, mean of donors): 214 pg/mL; IFN-γ mean (Table 9, mean of donors): 110 pg/mL
5′-TCGTCGA-3′-C3-5′-TCGTCGA-3′-C3-5′-TCGTCGA-3′ [Compound C-90]	–	–	–	–	–	–	–	–	–	–	similar	–	16	7	46	118	117	497	345	1586	IFN-α mean [2]: 131 pg/mL; IFN-γ mean [2]: 552 pg/mL
5′-TCGAACG-3′-HEG-5′-TCGAACG-3′-HEG-5′-TCGAACG-3′ [Compound C-50]	36	1324	137	1292	193	509	35	192	100	829	–	more active than other CG-containing CICs	–	–	–	–	–	–	–	–	IFN-α (donor 110, Table 14): 716 pg/mL; IFN-γ (donor 110, Table 14): 1096 pg/mL; IFN-α (donor 112, Table 14): 84 pg/mL; IFN-γ (donor 112, Table 14): 264 pg/mL; IFN-α (donor 119, Table 14): 838 pg/mL; IFN-γ (donor 119, Table 14): 52 pg/mL; IFN-α (donor 120, Table 14): 636 pg/mL; IFN-γ (donor 120, Table 14): 48 pg/mL; IFN-α (pg/ml) mean [3]: 569 pg/mL; IFN-γ (pg/ml) mean [3]: 365 pg/mL; IFN-α induction, in words (used alone): generated more IFN-α than CICs containing a 5′-TCGT-3′
